Measurements published in patent publication US8637535B2, “Polymorphic and other crystalline forms of cis-FTC” (Gilead Sciences, Inc., priority 2001, dated 2014).

Assays:
HIV [1] = conditions: racemic mixture; cited from earlier work
HIV [2] = conditions: cited from earlier work
[3] = heated to 160° C., cooled to 25° C., reheated at 10° C./min
Procedure: Thermal events for Form I (−)-cis-FTC upon melting and subsequent cooling to room temperature were observed by DSC. A 5.5500 mg sample of Form I (−)-cis-FTC was heated to 160° C., that is just above the melting temperature for Form I, and then cooled back to 25° C.

[4] = solubility values greater than 100 mg/mL are considered highly soluble
Procedure: Equilibrium Solubility: Equilibrium solubility values were obtained using an excess of solid in a stoppered flask shaken in a temperature-controlled water bath at 25 C for 52 hours. Residual solid material was identified postequilibrium by hot-stage microscopy and PXRD. The supernatant was filtered across 0.45-μm membrane filters prior to dilution for HPLC analysis.

[5] = hand trituration 5 minutes or Fitzpatrick mill; DSC and PXRD
Procedure: Milling: (−)-cis-FTC was milled in a Fitzpatrick mill at high speed (4000 RPM), hammers forward with a 000-band screen. The drug was passed through the filter once and collected in a plastic bag.
Two batches of milled Form I (−)-cis-FTC were prepared: one by hand trituration in a mortar and pestle for 5 minutes, another by milling in a Fitzpatrick mill.

[6] = below 130° C.

Q: Which “activity against HIV relative to AZT” value (HIV [1]) does the source give for `Nc1ccn(C2CSC(CO)O2)c(=O)n1` (racemic) [BCH-189, 2-hydroxymethyl-5-(cytosin-1-yl)-1,3-oxathiolane] here?
A: The value was “approximately the same activity against HIV as AZT”.

Q: With `Nc1nc(=O)n([C@@H]2CS[C@H](CO)O2)cc1F` [(−)-(cis)-FTC, 4-amino-5-fluoro-1-(2-(hydroxymethyl)-1,3-oxathiolan-5-yl)-2(1H)-pyrimidinone (2R-cis)] as the compound, how does the HIV activity (HIV [2]) read?
A: Its HIV activity is “potent”.

Q: For `Nc1nc(=O)n([C@@H]2CS[C@H](CO)O2)cc1F` [Form I, β-L-2-hydroxymethyl-5-(5-fluorocytosin-1-yl)-1,3-oxathiolane], which “change in potency by HPLC” value [3] is on record?
A: The value was “no change in potency”.

Q: What about the solubility category [4] of the same compound?
A: Its solubility category is “highly soluble”.

Q: What about the “effect of milling on crystal form” value [5] of the same compound?
A: The value was “does not affect the crystal form”.

Q: And the “thermodynamic stability among phases” value [6]?
A: Its value is “most stable phase”.
